Reference: patent US7265152B2 (ViroPharma Incorporated, priority 2002, dated 2007)
pEC50, pIC50: −log10 of the molar value. Like-named read-outs stand apart in the source and are kept apart here.

Legend:
[1] = tested on: HCV replicon (BB7 sequence) in Huh-7-Clone A cells; test: HCV replicon assay: ELISA of NS5A protein in replicon-containing cells (Inhibition of Viral RNA Replication); format: cell-based; details: Hepatitis C virus; HCV replicon assay; ranges of EC50; read-out: Replicon
Procedure, shortened: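 EC50 taken from an 8-point serially diluted dose curve, with NS5A level as read-out: fixed cells probed with primary monoclonal and HRP-conjugated secondary, TMB developed 30 min, OD 650 nm. Compound exposure 72 h in Huh-7-Clone A replicon cells (BB7 sequence).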

HCV NS5B = biological target: T1, HCV NS5B (Hepatitis C virus genotype 1b, UniProt Q9WMX2); test: Inhibition of viral RNA-dependent RNA polymerase (RdRp), in vitro biochemical assay; parameters: species or system HCV genotype 1b virus (BB7); details: HCV NS5B RdRp, BB7, read-out: HCV pol-BB7 IC50
T1 construct: fusion protein, of which the carboxyl terminal 21 amino acids were removed to enhance its solubility; His tag (GSHHHHHH); made in house; host or cells: E. coli
Procedure, shortened: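 IC50 values are the concentrations that halve in vitro RNA synthesis by HCV NS5B polymerase. The enzyme was a C-terminally truncated (Δ21), His-tagged genotype 1b (BB7 consensus) protein purified from E. coli.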

| Structure (SMILES) | pEC50 [1] | pIC50 (HCV NS5B; class symbols A-D) | pIC50 (HCV NS5B; activity class) |
| --- | --- | --- | --- |
| CNC(=O)c1c(-c2ccc(F)cc2)oc2cc(-c3cc(COC)on3)c(OC)cc12 [Example 313, 2-(4-Fluoro-phenyl)-5-methoxy-6-(5-methoxymethyl-isoxazol-3-yl)-benzofuran-3-carboxylic acid methylamide] | > 6.00 | ≥ 6.30 | – |
| CNC(=O)c1c(-c2ccc(F)cc2)oc2cc(-c3c(C)noc3C)c(O)cc12 [Example 314, 6-(3,5-Dimethyl-isoxazol-4-yl)-2-(4-fluoro-phenyl)-5-hydroxy-benzofuran-3-carboxylic acid methylamide] | > 6.00 | ≥ 6.30 | – |
| CNC(=O)c1c(-c2ccc(F)cc2)oc2cc(C3CNC(=O)C3)c(OC)cc12 (stereo not shown) [Example 315, 2-(4-Fluoro-phenyl)-5-methoxy-6-(5-oxo-pyrrolidin-3-yl)-benzofuran-3-carboxylic acid methylamide] | > 5.00 | ≥ 6.30 | – |
| CNC(=O)c1c(-c2ccc(F)cc2)oc2cc(N(CCOC(F)(F)F)S(C)(=O)=O)c(OC)cc12 [Example 316, 2-(4-Fluoro-phenyl)-6-[methanesulfonyl-(2-trifluoromethoxy-ethyl)-amino]-5-methoxy-benzofuran-3-carboxylic acid methylamide] | > 6.00 | 5.30 to 6.30 | – |
| CNC(=O)c1c(-c2ccc(F)cc2)oc2cc(-c3cc[nH]c3)c(OC)cc12 [Example 317, 2-(4-Fluoro-phenyl)-5-methoxy-6-(1H-pyrrol-3-yl)-benzofuran-3-carboxylic acid methylamide] | > 6.00 | 4.52 to 5.30 | – |
| CCOc1cc(F)ccc1-c1oc2cc(-c3c(C)noc3C)c(OC)cc2c1C(=O)NC [Example 318, 6-(3,5-Dimethyl-isoxazol-4-yl)-2-(2-ethoxy-4-fluoro-phenyl)-5-methoxy-benzofuran-3-carboxylic acid methylamide] | < 4.52 | ≥ 6.30 | – |
| CNC(=O)c1c(-c2ccc(F)cc2)oc2cc(N(C)S(C)(=O)=O)c(OCc3cscn3)cc12 [Example 319, 2-(4-Fluoro-phenyl)-6-(methanesulfonyl-methyl-amino)-5-(thiazol-4-ylmethoxy)-benzofuran-3-carboxylic acid methylamide] | > 6.00 | 5.30 to 6.30 | – |
| CNC(=O)c1c(-c2ccc(F)cc2)oc2cc(N(C)S(C)(=O)=O)c(OCc3csc(C)n3)cc12 [Example 320, 2-(4-Fluoro-phenyl)-6-(methanesulfonyl-methyl-amino)-5-(2-methyl-thiazol-4-ylmethoxy)-benzofuran-3-carboxylic acid methylamide] | > 6.00 | ≥ 6.30 | – |
| CNC(=O)c1c(-c2ccc(F)cc2)oc2cc(N(C)S(C)(=O)=O)c(Oc3nc(CCl)ns3)cc12 [Example 321, 5-(3-Chloromethyl-[1,2,4]thiadiazol-5-yloxy)-2-(4-fluoro-phenyl)-6-(methanesulfonyl-methyl-amino)-benzofuran-3-carboxylic acid methylamide] | > 6.00 | ≥ 6.30 | – |
| CNC(=O)c1c(-c2ccc(F)cc2)oc2cc(N(CC(O)c3ccc(F)cc3)S(C)(=O)=O)c(OC(C)C)cc12 (stereo not shown) [Example 322, 2-(4-Fluoro-phenyl)-6-{[2-(4-fluoro-phenyl)-2-hydroxy-ethyl]-methanesulfonyl-amino}-5-isopropoxy-benzofuran-3-carboxylic acid methylamide] | > 6.00 | ≥ 6.30 | – |
| CNC(=O)c1c(-c2ccc(F)cc2)oc2cc(-c3ncnn3C)c(OC)cc12 [Example 323, 2-(4-Fluoro-phenyl)-5-methoxy-6-(2-methyl-2H-[1,2,4]triazol-3-yl)-benzofuran-3-carboxylic acid methylamide] | > 6.00 | ≥ 6.30 | – |
| CNC(=O)c1c(-c2ccc(F)cc2)oc2cc(N(C)S(C)(=O)=O)c(OCc3c(C)noc3C)cc12 [Example 324, 5-(3,5-Dimethyl-isoxazol-4-ylmethoxy)-2-(4-fluoro-phenyl)-6-(methanesulfonyl-methyl-amino)-benzofuran-3-carboxylic acid methylamide] | > 6.00 | ≥ 6.30 | – |
| CNC(=O)c1c(-c2ccc(F)cc2)oc2cc(N(C)S(C)(=O)=O)c(OCc3cccc(OC)c3)cc12 [Example 325, 2-(4-Fluoro-phenyl)-6-(methanesulfonyl-methyl-amino)-5-(3-methoxy-benzyloxy)-benzofuran-3-carboxylic acid methylamide] | > 6.00 | ≥ 6.30 | – |
| CNC(=O)c1c(-c2ccc(F)cc2)oc2cc(N(CC(C)C)S(C)(=O)=O)c(O)cc12 [Example 326, 2-(4-Fluoro-phenyl)-5-hydroxy-6-(isobutyl-methanesulfonyl-amino)-benzofuran-3-carboxylic acid methylamide] | > 4.52 | 5.30 to 6.30 | – |
| CNC(=O)c1c(-c2ccc(F)cc2)oc2cc(N(C)S(C)(=O)=O)c(OCc3ccc(OC)cc3)cc12 [Example 327, 2-(4-Fluoro-phenyl)-6-(methanesulfonyl-methyl-amino)-5-(4-methoxy-benzyloxy)-benzofuran-3-carboxylic acid methylamide] | > 6.00 | ≥ 6.30 | – |
| CNC(=O)c1c(-c2ccc(F)cc2)oc2cc(N(C)S(C)(=O)=O)c(OCc3ccncc3)cc12 [Example 328, 2-(4-Fluoro-phenyl)-6-(methanesulfonyl-methyl-amino)-5-(pyridin-4-ylmethoxy)-benzofuran-3-carboxylic acid methylamide] | > 6.00 | ≥ 6.30 | – |
| CNC(=O)c1c(-c2ccc(F)cc2)oc2cc(N(C)S(C)(=O)=O)c(OCc3ccc4c(c3)C(=O)OC(C)(C)O4)cc12 [Example 329, 5-(2,2-Dimethyl-4-oxo-4H-benzo[1,3]dioxin-6-ylmethoxy)-2-(4-fluoro-phenyl)-6-(methanesulfonyl-methyl-amino)-benzofuran-3-carboxylic acid methylamide] | > 6.00 | ≥ 6.30 | – |
| CNC(=O)c1c(-c2ccc(F)cc2)oc2cc(N(CC3CC3)S(C)(=O)=O)c(OC)cc12 [Example 330, 6-(Cyclopropylmethyl-methanesulfonyl-amino)-2-(4-fluoro-phenyl)-5-methoxy-benzofuran-3-carboxylic acid methylamide] | > 6.00 | ≥ 6.30 | – |
| CNC(=O)CN(c1cc2oc(-c3ccc(F)cc3)c(C(=O)NC)c2cc1OC)S(C)(=O)=O [Example 331, 2-(4-Fluoro-phenyl)-6-(methanesulfonyl-methylcarbamoylmethyl-amino)-5-methoxy-benzofuran-3-carboxylic acid methylamide] | > 6.00 | – | ≥ 6.30 |
| CNC(=O)c1c(-c2ccc(F)cc2)oc2cc(NS(C)(=O)=O)c(F)cc12 [Example 332, 5-Fluoro-2-(4-fluoro-phenyl)-6-methanesulfonylamino-benzofuran-3-carboxylic acid methylamide] | > 5.00 | – | 5.30 to 6.30 |
| CCN(c1cc2oc(-c3ccc(F)cc3)c(C(=O)NC)c2cc1F)S(C)(=O)=O [Example 333, 6-(Ethyl-methanesulfonyl-amino)-5-fluoro-2-(4-fluoro-phenyl)-benzofuran-3-carboxylic acid methylamide] | > 5.00 | – | ≥ 6.30 |
| CNC(=O)c1c(-c2ccc(F)cc2)oc2cc(C3CCN(S(C)(=O)=O)C3)c(OC)cc12 (stereo not shown) [Example 334, 2-(4-Fluoro-phenyl)-6-(1-methanesulfonyl-pyrrolidin-3-yl)-5-methoxy-benzofuran-3-carboxylic acid methylamide] | > 6.00 | – | ≥ 6.30 |
| CCc1cc2c(C(=O)NC)c(-c3ccc(F)cc3)oc2cc1N(CCOC)S(C)(=O)=O [Example 335, 5-Ethyl-2-(4-fluoro-phenyl)-6-[methanesulfonyl-(2-methoxy-ethyl)-amino]-benzofuran-3-carboxylic acid methylamide] | > 6.00 | – | ≥ 6.30 |
| CNC(=O)c1c(-c2ccc(F)cc2)oc2cc(-c3c(COC)noc3C)c(OC)cc12 [Example 336, 2-(4-Fluoro-phenyl)-5-methoxy-6-(3-methoxymethyl-5-methyl-isoxazol-4-yl)-benzofuran-3-carboxylic acid methylamide] | > 6.00 | – | ≥ 6.30 |
| CCc1cc2c(C(=O)NC)c(-c3ccc(F)cc3)oc2cc1N(CCF)S(C)(=O)=O [Example 337, 5-Ethyl-6-[(2-fluoro-ethyl)-methanesulfonyl-amino]-2-(4-fluoro-phenyl)-benzofuran-3-carboxylic acid methylamide] | > 6.00 | – | ≥ 6.30 |
| CCCOc1cc2c(C(=O)NC)c(-c3ccc(F)cc3)oc2cc1N(CCC)S(C)(=O)=O [Example 338, 2-(4-Fluoro-phenyl)-6-(methanesulfonyl-propyl-amino)-5-propoxy-benzofuran-3-carboxylic acid methylamide] | > 6.00 | – | ≥ 6.30 |
| CCc1cc2c(C(=O)NC)c(-c3ccc(F)cc3)oc2cc1C(C)(C)O [Example 339, 5-Ethyl-2-(4-fluoro-phenyl)-6-(1-hydroxy-1-methyl-ethyl)-benzofuran-3-carboxylic acid methylamide] | > 6.00 | – | ≥ 6.30 |
| CCc1cc2c(C(=O)NC)c(-c3ccc(F)cc3)oc2cc1C(C)=O [Example 340, 6-Acetyl-5-ethyl-2-(4-fluoro-phenyl)-benzofuran-3-carboxylic acid methylamide] | > 6.00 | – | ≥ 6.30 |
| CCNc1cc2oc(-c3ccc(F)cc3)c(C(=O)NC)c2c(Cl)c1O [Example 341, 4-Chloro-6-ethylamino-2-(4-fluoro-phenyl)-5-hydroxy-benzofuran-3-carboxylic acid methylamide] | < 4.00 | – | 5.30 to 6.30 |
